Measurements taken from patent publication US8575307B2, “Protein kinase C inhibitors for prevention of insulin resistance and type 2 diabetes” (Hadasit Medical Research Services & Development Ltd., priority 2005, dated 2013).
Square brackets hold non-standard residues; d marks the D form. * marks the point of attachment. Myristoyl = CCCCCCCCCCCCCC(=O)*

Key:
[1] = system: nutritionally induced type 2 diabetes in Psammomys obesus; test: Nutritionally induced diabetes in Psammomys obesus model: whole blood glucose by glucometer; assay type: in vivo; conditions: diabetic Psammomys on high energy diet; three intraperitoneal injections of 10 mg/kg, 5 days apart
Experimental: Psammomys obesus gerbils males or females weighing 160-200 g in the fed state were used. […] The animals were then injected intraperitoneally with 10 mg/kg of the peptide dissolved in dimethylsulphoxide solvent (or with solvent alone in controls). […] Whole blood glucose was measured by a glucometer on a minidroplet of blood withdrawn from the end of the tail. Three injections were given 5 days apart and after 14 days or earlier the high blood glucose levels of the animals became normal, the controls remained at the 300-400 mg/dl level. The normal level lasted at least for 3 to 5 days after the last injection. […] The line with asterisk represents the control animal. Other lines are those of individual injected animals.

pancreatic beta cells = test: Histology (hematoxylin-eosin) and insulin immunostaining of pancreatic beta cells; assay type: in vivo, Psammomys obesus; conditions: diabetic Psammomys, peptide treatment for 14 days
Experimental: For assaying the insulin signaling pathway components and electronmicroscopic examination of the pancreatic beta cells, animals were killed by decapitation in the fed state in the morning three days after the third intraperitoneal peptide injection. Blood was collected and serum insulin levels was determined by radioimmunoassay, using anti-human antibodies. The gastrocnemius muscles from both legs were excised, immediately frozen in liquid nitrogen, and then stored at −80° C. The electronmicroscopic examination of pancreatic beta cells was performed on slices of pancreatic paraffin blocks according to the method of Joins et al., 2002, Virchovs Arch 440: 63-69. The histologic and immunostaining properties of the pancreatic beta cells in diabetic Psammomys gerbils injected with peptide 12 were investigated in order to check whether the beta cells are protected from hyperglycemia. […] FIGS. 5A and 5B describe representative hematoxylin-eosin stained beta cell and insulin immunostained beta cells in diabetic and treated animals.

[2] = system: serine phosphorylation of IRS by PKC; test: Immunoblot of serine phosphorylation of IRS in muscle lysates; assay type: in vivo, Psammomys obesus; conditions: treated vs non-treated animal
Experimental: (§1) For assaying the insulin signaling pathway components and electronmicroscopic examination of the pancreatic beta cells, animals were killed by decapitation in the fed state in the morning three days after the third intraperitoneal peptide injection. Blood was collected and serum insulin levels was determined by radioimmunoassay, using anti-human antibodies. The gastrocnemius muscles from both legs were excised, immediately frozen in liquid nitrogen, and then stored at −80° C.
(§2) Immunoblot analysis of insulin signaling molecules were performed using muscle homogenates prepared in a homogenization buffer that contained 20 mmol/l HEPES, 8 mmol/l EDTA, 0.2 mmol/l Na3VO4, 10 mmol/l Na4P2O7, 2.5 mmol/l, 2 mM phenylmathylsulfonyl fluorid, 160 mmol/l NaF, 2 mmol/l DCA, 1% Triton X-100, 1% protease inhibitor cocktail and 1% phaphatase inhibitor cocktail (Sigma®) pH 7.4. Equal amount of cell lysate were dissolved in Laemmli buffer and subjected to SDS-PAGE gel separation. The separated proteins were transferred to nitrocellulose membranes. […] All protein data were quantified by densitometry. […]
(§3) The extent of phosphorylation of the components of the insulin signaling pathway (signal proteins) in the muscle lysates of the treated and non-treated animals “ ” was investigated. FIG. 6 presents the relative extent of serine phosphorylation of IRS by PKC as determined by immunobloting with a specific antibody. […]

PKB/AKT = test: Immunoblot of serine phosphorylation of PKB/AKT in muscle lysates; assay type: in vivo, Psammomys obesus; conditions: treated vs non-treated animal
Experimental: as §1, §2, §3

[3] = system: glucose transporter GLUT4 protein; test: Immunoblot of GLUT4 protein amount in muscle lysates; assay type: in vivo, Psammomys obesus; conditions: treated vs non-treated animal
Experimental: as §1, §2, §3

Row | Substance | hypoglycemic effect (blood glucose) [1] | immunostainable insulin content of the pancreatic beta cells (pancreatic beta cells) | beta cell structure (pancreatic beta cells; hematoxylin-eosin staining) | relative extent of serine phosphorylation of IRS by PKC [2] | relative extent of phosphorylation of serine in PKB/AKT (PKB/AKT) | relative amount of the glucose transporter GLUT4 protein [3]
1 | myristoyl-Gly-Phe-Gln-Ile-Gln-Arg-Ser-Arg-Lys-Phe-Asn-amide (Myristoyl-GFQIQRSRKFN-NH2; SMILES CCCCCCCCCCCCCC(=O)NCC(=O)N[C@@H](Cc1ccccc1)C(=O)N[C@@H](CCC(N)=O)C(=O)N[C@H](C(=O)N[C@@H](CCC(N)=O)C(=O)N[C@@H](CCCNC(=N)N)C(=O)N[C@@H](CO)C(=O)N[C@@H](CCCNC(=N)N)C(=O)N[C@@H](CCCCN)C(=O)N[C@@H](Cc1ccccc1)C(=O)N[C@@H](CC(N)=O)C(N)=O)[C@@H](C)CC) [peptide 12, myristoylated peptide analog derived from the αD region of PKC-ε] | hypoglycemic effect | replenished | markedly improved | much lower | reduced | elevated
2 | myristoyl-Gly-Asn-Leu-Met-Phe-Gln-Ile-Gln-Arg-Ser-Arg-Lys-Phe-amide (Myristoyl-GNLMFQIQRSRKF-NH2; SMILES CCCCCCCCCCCCCC(=O)NCC(=O)N[C@@H](CC(N)=O)C(=O)N[C@@H](CC(C)C)C(=O)N[C@@H](CCSC)C(=O)N[C@@H](Cc1ccccc1)C(=O)N[C@@H](CCC(N)=O)C(=O)N[C@H](C(=O)N[C@@H](CCC(N)=O)C(=O)N[C@@H](CCCNC(=N)N)C(=O)N[C@@H](CO)C(=O)N[C@@H](CCCNC(=N)N)C(=O)N[C@@H](CCCCN)C(=O)N[C@@H](Cc1ccccc1)C(N)=O)[C@@H](C)CC) [peptide 16, myristoylated peptide analog derived from the αD region of PKC-ε] | hypoglycemic effect | – | – | – | – | –
3 | myristoyl-Gly-Met-Ala-(D)Lys-Gln-Pro-Pro-Phe-amide (Myristoyl-GMA[dK]QPPF-NH2; SMILES CCCCCCCCCCCCCC(=O)NCC(=O)N[C@@H](CCSC)C(=O)N[C@@H](C)C(=O)N[C@H](CCCCN)C(=O)N[C@@H](CCC(N)=O)C(=O)N1CCC[C@H]1C(=O)N1CCC[C@H]1C(=O)N[C@@H](Cc1ccccc1)C(N)=O) [peptide 7, myristoylated peptide analog derived from the HJ region of PKC-ε] | hypoglycemic effect | – | – | – | – | –
